The test system of the test is human FXN. Description: EC50 assay: FXN mRNA expression by qRT-PCR in GM15850 cells after 48 hrs compound treatment. Particulars: Homo sapiens, 48 hrs incubation, hFXN expression normalized to hGAPDH (qRT-PCR), read-out: EC50 WT (nM, 48 hr). It is filed as cell-based. On the procedure: Cell culture: Cells were cultured in RPMI1640 medium+15% FBS. Cells were maintained at a density between 2e5/mL and 1e6/mL. Cells were centrifuged, resuspended in fresh medium, counted and plated at 150,000 cells per well in 100 uL in a non-coated, flat bottom tissue culture plate.
Compound treatment: 10 mM stock solution of FA GeneTAC was diluted 1:10 in DMSO followed by a 1:100 dilution in growth medium. Working solution was then further diluted to 10× desired final concentration of 150 nM. Compound was then diluted at a 1:3 ratio into growth medium containing 0.01% DMSO. 5-point, 3-fold dose response curve was generated. 11 μL of 1OX compound was added to wells containing 100 μL cell suspension of GM15850. 11 μL growth medium containing 0.01% DMSO was added to all wells not treated with FA GeneTAC. Cells were allowed to incubate for 48 hrs prior to cell lysis using guanidine isothiocyanate solution.
RNA isolation: Total RNA was isolated and purified in 384-well column filter plates using chaotropic salt.
qRT-PCR: qRT-PCR reactions were assembled using AgPath-ID reagents (Thermo Fisher) using 6 uL mastermix and 4 μL RNA. qRT-PCR TaqMan primer probe sets against human FXN (Assay ID Hs01075496_m1) and human GAPDH (Assay ID Hs00266705_g1) were used to measure the intended targets. qRT-PCR was run on the ThermoFisher QuantStudio 6 PRO instrument using the manufacturer's recommended cycling conditions.
Data analysis: qPCR data was analyzed using Thermo Fisher Design and Analysis software. Data was exported to Excel and hFXN expression was normalized to hGAPDH expression
A<100 nM; B is 100 nM to 500 nM; C>500 nM.
Background: Real-time PCR tracks product formation cycle by cycle.

Molecules are shown by their SMILES. Some results are limits rather than exact numbers.

By EC50 is commonly meant the concentration that produces a half-maximal response. As for `COc1ccc2c(c1)C(c1ccc(Cl)cc1)=N[C@@H](CC(=O)N1CCN(CCOCCOCCOCCN3CCN(CCOCCOCCOCCNC(=O)CCNC(=O)c4nc(NC(=O)CCNC(=O)c5cc(NC(=O)c6nc(NC(=O)CCNC(=O)c7cc(NC(=O)c8nccn8C)cn7C)cn6C)cn5C)cn4C)CC3)CC1)c1nnc(C)n1-2` [Compound 28], the EC50 was over 500 nM.
In the case of `Cc1sc2c(c1C)C(c1ccc(Cl)cc1)=N[C@@H](CC(=O)NC1CCN(CCOCCOCCOCCN3CCN(CCN4CCN(CCOCCNC(=O)CCNC(=O)c5nc(NC(=O)CCNC(=O)c6cc(NC(=O)c7nc(NC(=O)CCNC(=O)c8cc(NC(=O)c9nccn9C)cn8C)cn7C)cn6C)cn5C)CC4)CC3)CC1)c1nnc(C)n1-2` [Compound 29] it was over 500 nM.
For `Cc1sc2c(c1C)C(c1ccc(Cl)cc1)=N[C@@H](CC(=O)NC1CCN(CCOCCOCCOCCN3CCN(CC4CCN(CCOCCNC(=O)CCNC(=O)c5nc(NC(=O)CCNC(=O)c6cc(NC(=O)c7nc(NC(=O)CCNC(=O)c8cc(NC(=O)c9nccn9C)cn8C)cn7C)cn6C)cn5C)CC4)CC3)CC1)c1nnc(C)n1-2` [Compound 33], the EC50 is over 500 nM.
For `COc1ccc2c(c1)C(c1ccc(Cl)cc1)=N[C@@H](CC(=O)NC1CCN(CCOCCOCCOCCN3CCN(CC4CCN(CCOCCNC(=O)CCNC(=O)c5nc(NC(=O)CCNC(=O)c6cc(NC(=O)c7nc(NC(=O)CCNC(=O)c8cc(NC(=O)c9nccn9C)cn8C)cn7C)cn6C)cn5C)CC4)CC3)CC1)c1nnc(C)n1-2` [Compound 34] the value was over 500 nM; for `Cc1sc2c(c1C)C(c1ccc(Cl)cc1)=N[C@@H](CC(=O)NC1CCN(CCOCCN3CCC(CN4CCN(CCOCCOCCOCCNC(=O)CCNC(=O)c5nc(NC(=O)CCNC(=O)c6cc(NC(=O)c7nc(NC(=O)CCNC(=O)c8cc(NC(=O)c9nccn9C)cn8C)cn7C)cn6C)cn5C)CC4)CC3)CC1)c1nnc(C)n1-2` [Compound 35], 100 to 500 nM.
Regarding `Cc1sc2c(c1C)C(c1ccc(Cl)cc1)=N[C@H](CC(=O)NC1CCN(CCOCCOCCOCCOCCOCCC(=O)NCCCN(C)CCCNC(=O)CCNC(=O)c3nc(NC(=O)CCNC(=O)c4cc(NC(=O)c5nc(NC(=O)CCNC(=O)c6cc(NC(=O)c7nccn7C)cn6C)cn5C)cn4C)cn3C)CC1)c1nnc(C)n1-2` [Compound 39], the EC50 is over 500 nM.
As for `Cc1sc2c(c1C)C(c1ccc(Cl)cc1)=N[C@@H](CC(=O)N1CCC(C#CC#CCNCCOCCOCCOCCOCCOCCNC(=O)CCNC(=O)c3nc(NC(=O)CCNC(=O)c4cc(NC(=O)c5nc(NC(=O)CCNC(=O)c6cc(NC(=O)c7nccn7C)cn6C)cn5C)cn4C)cn3C)CC1)c1nnc(C)n1-2` [Compound 40], the EC50 was under 100 nM.
For the molecule `COc1ccc2c(c1)C(c1ccc(Cl)cc1)=N[C@@H](CC(=O)N1CCC(C#CC#CCNCCOCCOCCOCCOCCOCCNC(=O)CCNC(=O)c3nc(NC(=O)CCNC(=O)c4cc(NC(=O)c5nc(NC(=O)CCNC(=O)c6cc(NC(=O)c7nccn7C)cn6C)cn5C)cn4C)cn3C)CC1)c1nnc(C)n1-2` [Compound 41], the EC50 was under 100 nM.
For `Cc1sc2c(c1C)C(c1ccc(Cl)cc1)=N[C@@H](CC(=O)Nc1ccc(C#CC#CCN(CCN3CCN(C)CC3)C(=O)COCCOCCOCCOCCOCCNC(=O)CCNC(=O)c3nc(NC(=O)CCNC(=O)c4cc(NC(=O)c5nc(NC(=O)CCNC(=O)c6cc(NC(=O)c7nccn7C)cn6C)cn5C)cn4C)cn3C)cc1)c1nnc(C)n1-2` [Compound 42] the value was under 100 nM.
In the case of `Cc1sc2c(c1C)C(c1ccc(Cl)cc1)=N[C@@H](CC(=O)Nc1ccc(C#CC#CCN(CCOCCOCCOCCOCCOCCNC(=O)CCNC(=O)c3nc(NC(=O)CCNC(=O)c4cc(NC(=O)c5nc(NC(=O)CCNC(=O)c6cc(NC(=O)c7nccn7C)cn6C)cn5C)cn4C)cn3C)CCC3CCN(C)CC3)cc1)c1nnc(C)n1-2` [Compound 43] it was 100 to 500 nM; in that of `COc1ccc2c(c1)C(c1ccc(Cl)cc1)=N[C@@H](CC(=O)N1CCN(CC3CCN(CCOCCOCCOCCOCCOCCOCCOCCNC(=O)CCNC(=O)c4nc(NC(=O)CCNC(=O)c5cc(NC(=O)c6nc(NC(=O)CCNC(=O)c7cc(NC(=O)c8nccn8C)cn7C)cn6C)cn5C)cn4C)CC3)CC1)c1nnc(C)n1-2` [Compound 46], over 500 nM; in that of `Cc1cc(F)cc(C)c1Oc1ccc(C(C)(C)O)cc1-c1cn(C)c(=O)c2[nH]c(C(=O)NC3CCN(CCOCCOCCOCCOCCOCCOCCOCCOCCNC(=O)CCNC(=O)c4nc(NC(=O)CCNC(=O)c5cc(NC(=O)c6nc(NC(=O)CCNC(=O)c7cc(NC(=O)c8nccn8C)cn7C)cn6C)cn5C)cn4C)CC3)cc12` [Compound 47], under 100 nM.
Take `CC(=O)Nc1c(F)cc(C(=O)NC2CCN(CCOCCOCCOCCOCCOCCOCCOCCOCCNC(=O)CCNC(=O)c3nc(NC(=O)CCNC(=O)c4cc(NC(=O)c5nc(NC(=O)CCNC(=O)c6cc(NC(=O)c7nccn7C)cn6C)cn5C)cn4C)cn3C)CC2)cc1O[C@@H](C)c1ccccc1` [Compound 48]: the EC50 was over 500 nM.
Consider `Cc1cc(F)cc(C)c1Oc1ccc(C(C)(C)O)cc1-c1cn(C)c(=O)c2[nH]c(C(=O)NCCOCCOCCOCCOCCOCCOCCOCCOCCNC(=O)CCNC(=O)c3nc(NC(=O)CCNC(=O)c4cc(NC(=O)c5nc(NC(=O)CCNC(=O)c6cc(NC(=O)c7nccn7C)cn6C)cn5C)cn4C)cn3C)cc12` [Compound 50], for which the EC50 was under 100 nM.
For `Cc1sc2c(c1C)C(c1ccc(Cl)cc1)=N[C@@H](CC(=O)N1CCC(N3CCN(CCOCCOCCOCCOCCOCCOCCNC(=O)CCNC(=O)c4nc(NC(=O)CCNC(=O)c5cc(NC(=O)c6nc(NC(=O)CCNC(=O)c7cc(NC(=O)c8nccn8C)cn7C)cn6C)cn5C)cn4C)CC3)CC1)c1nnc(C)n1-2` [Compound 51] the value was 100 to 500 nM; for `COc1ccc2c(c1)C(c1ccc(Cl)cc1)=N[C@@H](CC(=O)N1CCC(N3CCN(CCOCCOCCOCCOCCOCCOCCNC(=O)CCNC(=O)c4nc(NC(=O)CCNC(=O)c5cc(NC(=O)c6nc(NC(=O)CCNC(=O)c7cc(NC(=O)c8nccn8C)cn7C)cn6C)cn5C)cn4C)CC3)CC1)c1nnc(C)n1-2` [Compound 52], over 500 nM; for `Cc1sc2c(c1C)C(c1ccc(Cl)cc1)=N[C@@H](CC(=O)N1CCN(C3CCN(CCOCCOCCOCCOCCOCCOCCNC(=O)CCNC(=O)c4nc(NC(=O)CCNC(=O)c5cc(NC(=O)c6nc(NC(=O)CCNC(=O)c7cc(NC(=O)c8nccn8C)cn7C)cn6C)cn5C)cn4C)CC3)CC1)c1nnc(C)n1-2` [Compound 53], 100 to 500 nM.
In the case of `COc1ccc2c(c1)C(c1ccc(Cl)cc1)=N[C@@H](CC(=O)N1CCN(C3CCN(CCOCCOCCOCCOCCOCCOCCNC(=O)CCNC(=O)c4nc(NC(=O)CCNC(=O)c5cc(NC(=O)c6nc(NC(=O)CCNC(=O)c7cc(NC(=O)c8nccn8C)cn7C)cn6C)cn5C)cn4C)CC3)CC1)c1nnc(C)n1-2` [Compound 54], the EC50 is over 500 nM.
For `Cc1sc2c(c1C)C(c1ccc(Cl)cc1)=N[C@@H](CC(=O)N1CCC(CN3CCN(CCOCCOCCOCCOCCOCCOCCOCCNC(=O)CCNC(=O)c4nc(NC(=O)CCNC(=O)c5cc(NC(=O)c6nc(NC(=O)CCNC(=O)c7cc(NC(=O)c8nccn8C)cn7C)cn6C)cn5C)cn4C)CC3)CC1)c1nnc(C)n1-2` [Compound 55] the value was 100 to 500 nM; for `COc1ccc2c(c1)C(c1ccc(Cl)cc1)=N[C@@H](CC(=O)N1CCC(CN3CCN(CCOCCOCCOCCOCCOCCOCCOCCNC(=O)CCNC(=O)c4nc(NC(=O)CCNC(=O)c5cc(NC(=O)c6nc(NC(=O)CCNC(=O)c7cc(NC(=O)c8nccn8C)cn7C)cn6C)cn5C)cn4C)CC3)CC1)c1nnc(C)n1-2` [Compound 56], 100 to 500 nM.

For the origin of these results see patent US20240124491A1, “METHODS AND COMPOUNDS FOR TREATING FRIEDREICH'S ATAXIA” (Design Therapeutics, Inc., priority 2021, published 2024).
